One experiment concerns the target T1, cGMP-PDE V (Homo sapiens, UniProt O76074).
T1 construct: isolated from cardiovascular tissues (heart and aorta); from tissue; host or cells: cardiovascular tissues (heart and aorta)
Nature of the experiment: cGMP-PDE V inhibition (isozyme isolated from cardiovascular tissue). Type of experiment: biochemical, various animal species and man. The source says:
The cGMP-PDE and other PDE isozymes were isolated from cardiovascular tissues (heart and aorta) of various animal species and man by anion-exchange and affinity chromatography as described by Silver et al., Sec. Messeng. Phos. […] Cyclic Nucleotide Res. 10:69-92.

Experiment [1] concerns Spontaneously hypertensive rats (SHR). Nature of the experiment: antihypertensive activity in conscious spontaneously hypertensive rats (mean arterial pressure). Particulars: Rattus norvegicus, SHR iv; for ED25: 5 min, 5 min after dose, cumulative dosing, read-out: ED25, change in mean arterial pressure. The experiment is classed as in vivo. The procedure: After a 2 day recovery from surgery, three baseline blood pressure measurements were made at 5 min intervals in conscious SHR. Compounds to be tested or vehicle were then administered intravenously in a dose-dependent manner (0.3-10 mg base/kg) while arterial pressure was recorded continuously on a polygraph. The mean arterial pressure response was measured 5 minutes after the administration of each dose of the test compound and the next dose given in a cumulative dose fashion. The response to each dose of the test compound was calculated as the difference from the mean of the three baseline measurements.

For experiment [2] the test system is unchanged. The experiment is described as above. Conditions: Rattus norvegicus. Type of experiment: in vivo.
The test system of experiment [3] is Spontaneously hypertensive rats. Put plainly: reversal of nitroglycerin-induced tolerance in spontaneously hypertensive rats. The experiment is classed as in vivo, Spontaneously hypertensive rats (17-25 weeks of age). Particulars: for Percent (%) Reversal of Nitroglycerin-induced Tolerance: iv pretreatment 5-10 min before nitroglycerin challenge. The procedure: Spontaneously hypertensive rats (17-25 weeks of age) were made nitroglycerin tolerant by repeated administration of high doses of nitroglycerin (100 mg/kg, s.c., 3 times/day for 3 consecutive days). To confirm tolerance challenge doses of nitroglycerin were administered intravenously at doses ranging from 1-300 μg/kg and the maximum change in mean arterial pressure (MAP) for each dose was recorded. Groups of tolerant rats were pretreated with the compounds of the invention (tolerant pretreated group) or with vehicle (0.05N NaOH) (tolerant vehicle pretreated group) intravenously 5-10 minutes prior to administration of challenge doses of nitroglycerin. The administration of challenge doses of nitroglycerin to non-tolerant rats (the non-tolerant group) caused a dose-dependent decrease in MAP of between 10 to 40 mm Hg. […] The area under the dose-MAP curve was calculated for the non-tolerant group and for the tolerant vehicle pretreated group and the tolerant pretreated group. The percent reversal of nitrate-inducedtolerance was calculated as follows:
Percent Reversal=(AUCtol-pretreated -AUCtol-veh)/(AUCnontol
wherein: AUCnontol =the area under the dose-MAP curve for the non-tolerant group.
AUCtol-veh =the area under the dose-MAP curve for the tolerant vehicle pretreated group.
AUCtol-pretreated =the area under the dose-MAP curve for the tolerant pretreated group.
The following table summarizes the results obtained from the testing of representative compounds of the invention.

Structures are written as SMILES.

The term IC50 denotes the concentration that gives 50% inhibition.

Consider `CCc1nn(C2CCCC2)c2nc(Cc3ccccc3)[nH]c(=O)c12` [1(b), 1-cyclopentyl-3-ethyl-6-(phenylmethyl)-pyrazolo[3,4-d]pyrimdin-4-one], for which, on cGMP-PDE V, the IC50 is 0.01 µM. Moreover, in experiment [1] (1 mg/kg), the change in vivo at 1 mg/kg was -15%. Besides, the change in vivo at 30 mg/kg in experiment [2] (SHR iv, 30 mg/kg) was -29%.

For `CCc1[nH]n(C2CCCC2)c2nc(Cc3ccc(OC)cc3)nc(=O)c1-2` [Example 6, 1-cyclopentyl-3-ethyl-6-(4-methoxyphenylmethyl)pyrazolo[3,4-d]pyrimidin-4-one], inhibition against cGMP-PDE V was half-maximal at 0.023 µM (IC50). For the same compound, in experiment [1], the ED25 turned out to be 8.4 mg/kg and the change in vivo at 10 mg/kg is -30%. Moreover, the “Percent (%) Reversal of Nitroglycerin-induced Tolerance” value (“Percent (%) Reversal” below) in experiment [3] (Dose 1.0 mg/kg) was 69%. In addition, the “Percent (%) Reversal” value in experiment [3] (Dose 3.0 mg/kg) amounted to 140%.

`CCc1[nH]n(C2CCCC2)c2nc(Cc3ccc(O)cc3)nc(=O)c1-2` [Example 7, 1-cyclopentyl-3-ethyl-6-(4-hydroxyphenylmethyl)pyrazolo[3,4-d]pyrimidin-4-one]: inhibition at cGMP-PDE V was half-maximal at 0.019 µM (IC50). Further, the ED25 in experiment [1] amounted to 4.6 mg/kg. Moreover, the “Percent (%) Reversal” value in experiment [3] (Dose 0.3 mg/kg) was found to be 46%; in experiment [3] (Dose 1.0 mg/kg), 45%.

At cGMP-PDE V, `CCc1[nH]n(C2CCCC2)c2nc(Cc3cccc(O)c3)nc(=O)c1-2` [Example 20, 1-cyclopentyl-3-ethyl-6-(3-hydroxyphenylmethyl)pyrazolo[3,4-d]pyrimidin-4-one] displayed an IC50 of 0.086 µM. Besides, in experiment [1], the ED25 stood at 10.1 mg/kg and the change in vivo at 10 mg/kg is -23%.

With `CCc1[nH]n(C2CCCC2)c2nc(Cc3ccc(N)cc3)nc(=O)c1-2` [Example 26, 1-cyclopentyl-3-ethyl-6-(4-aminophenylmethyl)pyrazolo[3,4-d]pyrimidin-4-one], on cGMP-PDE V, the IC50 amounted to 0.0087 µM. For the same compound, the ED25 in experiment [1] was 4.2 mg/kg. Further, the change in vivo at 10 mg/kg in experiment [1] is -46%; in experiment [2] (SHR, 10 mg/kg, po), -56%.

Take `O=[N+]([O-])OCC(CO[N+](=O)[O-])O[N+](=O)[O-]` [nitroglycerin, reference compound]: the “hypotensive response to nitroglycerin challenge” value in experiment [3] (tolerant vehicle pretreated group, 1-300 μg/kg iv) is “significant reduction of the hypotensive response”.
